Test system: LPA-induced skin vascular leakage
Assay: mouse LPA-induced skin vascular leakage model
Assay type: in vivo
Conditions: mice, oral administration of 100 mg/kg, LPA-induced vascular leakage (Evans blue)
Procedure: Assessment of In Vivo Potency
The in vivo potency of the compounds of formulae (I), (II) and (III) can be determined using a mouse LPA-induced skin vascular leakage model. Female Balb/c mice are treated with either vehicle or test compound (p.o.) for at least 1 h prior to administration of the albumin marker Evans blue (50 mg/kg, i.v., 0.9% NaCl) and subsequent challenge with LPA (5 μg, i.d.). After 30 minutes, mice are sacrificed by CO2 inhalation. Discs of skin from the injection sites are removed, digested in formamide (500 μl, 37° C., 24 hrs) and the content of Evans blue quantified by colorimetric assay. Results are expressed as extravasated Evans blue per skin disc (μg/disc).
As an example, the compound of Ex 12-21 is able to effectively reduce LPA-induced vascular leakage after oral administration of 100 mg/kg to mice as compared to a group of animals treated with vehicle only. Reduction of vascular leakage compared to vehicle group was ≥60%.

| Compound | Reduction of vascular leakage compared to vehicle group |
| --- | --- |
| Cc1ccc(NC(=O)C2(c3ccccc3C(C)C)CN(C(=O)Cn3nccn3)C2)c(OC(F)F)n1 [Ex 12-21, 1-(2-(2H-1,2,3-triazol-2-yl)acetyl)-N-(2-(difluoromethoxy)-6-methylpyridin-3-yl)-3-(2-isopropylphenyl)azetidine-3-carboxamide] | ≥ 60% |

Target: human LPA1 receptor (Homo sapiens (Human), UniProt Q92633)
Assay: Beta-arrestin recruitment assay to determine IC50 values for human LPAR1
Assay type: cell-based
Conditions: antagonist mode, Tango EDG2-bla U2OS cells, LPA 18:1 500 nM final
How it was run: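 Tango EDG2-bla U2OS cells: LPA-driven beta-arrestin/TEV protease recruitment releases Gal4-VP16, inducing beta-lactamase reporter read with live-cell substrate. Cells seeded 20 h at 37 °C beforehand. IC50 is antagonist concentration inhibiting 50% of maximal response.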

Sequence of human LPA1 receptor (Q92633 whole entry): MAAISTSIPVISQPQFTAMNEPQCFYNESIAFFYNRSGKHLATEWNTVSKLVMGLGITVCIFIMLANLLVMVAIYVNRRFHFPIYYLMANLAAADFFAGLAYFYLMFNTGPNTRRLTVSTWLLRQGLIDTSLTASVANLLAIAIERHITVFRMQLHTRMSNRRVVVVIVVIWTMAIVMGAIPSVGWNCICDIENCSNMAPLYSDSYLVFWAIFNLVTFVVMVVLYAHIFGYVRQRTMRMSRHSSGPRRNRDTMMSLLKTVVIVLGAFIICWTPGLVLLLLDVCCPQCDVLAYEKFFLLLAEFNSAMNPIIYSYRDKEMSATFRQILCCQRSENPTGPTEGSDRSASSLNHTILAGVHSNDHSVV

| IC50 | Compound |
| --- | --- |
| 5.6 nM | Cc1ccc(NC(=O)C2(c3ccccc3C(C)C)CN(C(=O)Cn3nccn3)C2)c(OC(F)F)n1 [Ex 12-21, 1-(2-(2H-1,2,3-triazol-2-yl)acetyl)-N-(2-(difluoromethoxy)-6-methylpyridin-3-yl)-3-(2-isopropylphenyl)azetidine-3-carboxamide] |
| 7 nM | Cc1ccc(NC(=O)C2(c3ccccc3C(C)C)CN(S(=O)(=O)NCC(=O)O)C2)c(OC(F)F)n1 [Ex 15-2, ((3-((2-(difluoromethoxy)-6-methylpyridin-3-yl)carbamoyl)-3-(2-isopropylphenyl)azetidin-1-yl)sulfonyl)glycine] |
| 20 nM | Cc1ccc(NC(=O)C2(c3ccccc3C(C)C)CN(C[C@@H](O)CN)C2)c(OC(F)F)n1 [Ex 11-83, (S)-1-(3-amino-2-hydroxypropyl)-N-(2-(difluoromethoxy)-6-methylpyridin-3-yl)-3-(2-isopropylphenyl)azetidine-3-carboxamide] |
| 210 nM | Cc1ccc(NC(=O)C2(c3ccccc3C(C)C)CN(C(=O)N3CCOCC3)C2)c(OC(F)F)n1 [Ex 17-27, N-(2-(difluoromethoxy)-6-methylpyridin-3-yl)-3-(2-isopropylphenyl)-1-(morpholine-4-carbonyl)azetidine-3-carboxamide] |
| 37 nM | CC(C)c1ccccc1C1(C(=O)Nc2cccnc2OC(F)F)CN(S(=O)(=O)CCC(=O)OCc2ccccc2)C1 [Ex 13-9, benzyl 3-((3-((2-(difluoromethoxy)pyridin-3-yl)carbamoyl)-3-(2-isopropylphenyl)azetidin-1-yl)sulfonyl)propanoate] |
| > 10000 nM | COc1ncccc1NC(=O)C1(c2ccccc2)CNC1 [Ex 85, N-(2-methoxypyridin-3-yl)-3-phenylazetidine-3-carboxamide, reference compound] |
| 50 nM | Cc1ccc(NC(=O)C2(c3ccccc3C(C)C)CN(C(=O)/C=C/C(=O)O)C2)c(OC(F)F)n1 [Ex 12-75, (E)-4-(3-((2-(difluoromethoxy)-6-methylpyridin-3-yl)carbamoyl)-3-(2-isopropylphenyl)azetidin-1-yl)-4-oxobut-2-enoic acid] |
| 337 nM | Cc1ccc(NC(=O)C2(c3ccccc3C(C)C)CN(C(=O)CC3CCN(C)CC3)C2)c(OC(F)F)n1 [Ex 12-31, N-(2-(difluoromethoxy)-6-methylpyridin-3-yl)-3-(2-isopropylphenyl)-1-(2-(1-methylpiperidin-4-yl)acetyl)azetidine-3-carboxamide] |
| 193 nM | Cc1ccc(NC(=O)C2(c3ccccc3C(C)C)CN(CCN(C)CC(=O)O)C2)c(OC(F)F)n1 [Ex 11-82, N-(2-(3-((2-(difluoromethoxy)-6-methylpyridin-3-yl)carbamoyl)-3-(2-isopropylphenyl)azetidin-1-yl)ethyl)-N-methylglycine] |
| 13 nM | CNS(=O)(=O)CC(=O)N1CC(C(=O)Nc2ccc(C)nc2OC(F)F)(c2ccccc2C(C)C)C1 [Ex 12-6, N-(2-(difluoromethoxy)-6-methylpyridin-3-yl)-3-(2-isopropylphenyl)-1-(2-(N-methylsulfamoyl)acetyl)azetidine-3-carboxamide] |
| 37 nM | Cc1ccc(NC(=O)C2(c3ncccc3C(C)C)CN(c3nc(C)ccc3F)C2)c(OC(F)F)n1 [Ex 65, N-(2-(difluoromethoxy)-6-methylpyridin-3-yl)-1-(3-fluoro-6-methylpyridin-2-yl)-3-(3-isopropylpyridin-2-yl)azetidine-3-carboxamide] |
| 605 nM | COc1ccc(NC(=O)C2(c3ccccc3C(C)C)CN(C(=O)OC(C)(C)C)C2)c(OC)n1 [Ex 6-1, tert-butyl 3-((2,6-dimethoxypyridin-3-yl)carbamoyl)-3-(2-isopropylphenyl)azetidine-1-carboxylate] |
| 37 nM | Cc1ccc(NC(=O)C2(c3ccccc3C(C)C)CN(c3nnn[nH]3)C2)c(OC(F)F)n1 [Ex 20, N-(2-(difluoromethoxy)-6-methylpyridin-3-yl)-3-(2-isopropylphenyl)-1-(1H-tetrazol-5-yl)azetidine-3-carboxamide] |
| 15 nM | Cc1ccc(NC(=O)C2(c3ncccc3C(C)C)CN(c3nc(C)ncc3F)C2)c(OC(F)F)n1 [Ex 64, N-(2-(difluoromethoxy)-6-methylpyridin-3-yl)-1-(5-fluoro-2-methylpyrimidin-4-yl)-3-(3-isopropylpyridin-2-yl)azetidine-3-carboxamide] |
| 95 nM | Cc1ccc(NC(=O)C2(c3ccccc3C(C)C)CN(C(=O)CNC(C)(C)CC(=O)O)C2)c(OC(F)F)n1 [Ex 47, 3-((2-(3-((2-(difluoromethoxy)-6-methylpyridin-3-yl)carbamoyl)-3-(2-isopropylphenyl)azetidin-1-yl)-2-oxoethyl)amino)-3-methylbutanoic acid] |
| 60 nM | Cc1ccc(NC(=O)C2(c3ccccc3C(C)C)CN(C(=O)[C@@H](N)CO)C2)c(OC(F)F)n1 [Ex 12-40, 1-(L-seryl)-N-(2-(difluoromethoxy)-6-methylpyridin-3-yl)-3-(2-isopropylphenyl)azetidine-3-carboxamide] |

From patent US12344597B2, “Alkoxy-substituted pyridinyl derivatives as LPA1 receptor antagonists and their use in the treatment of fibrosis” (IDORSIA PHARMACEUTICALS LTD, priority 2018, dated 2025)
